# T1: AL9 (carboxy-terminal 181 amino acids of MBS) (Homo sapiens, UniProt O14974)
# T1 construct: expressed in transfected cells; host or cells: Saccharomyces cerevisiae Y190
# T1 sequence (O14974 850-1030 limits assumed): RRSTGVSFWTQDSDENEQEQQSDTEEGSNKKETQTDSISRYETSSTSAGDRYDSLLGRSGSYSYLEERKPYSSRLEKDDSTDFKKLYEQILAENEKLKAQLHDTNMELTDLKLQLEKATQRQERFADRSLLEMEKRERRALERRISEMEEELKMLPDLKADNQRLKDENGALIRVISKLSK
# B1: cGK1α68-446: cGK1α mutant corresponding to amino acids 68-446 (protein, UniProt Q13976 68-446, looked up, fragment)
# chain: PQTYRSFHDLRQAFRKFTKSERSKDLIKEAILDNDFMKNLELSQIQEIVDCMYPVEYGKDSCIIKEGDVGSLVYVMEDGKVEVTKEGVKLCTMGPGKVFGELAILYNCTRTATVKTLVNVKLWAIDRQCFQTIMMRTGLIKHTEYMEFLKSVPTFQSLPEEILSKLADVLEETHYENGEYIIRQGARGDTFFIISKGTVNVTREDSPSEDPVFLRTLGKGDWFGEKALQGEDVRTANVIAAEAVTCLVIDRDSFKHLIGGLDDVSNKAYEDAEAKAKYEAEAAFFANLKLSDFNIIDTLGVGGFGRVELVQLKSEESKTFAMKILKKRHIVDTRQQEHIRSEKQIMQGAHSDFIVRLYRTFKDSKYLYMLMEACLGGEL
# modifications: isoform alpha
# B2: cGK1α68-667: cGK1α mutant corresponding to amino acids 68-667 (protein, UniProt Q13976 68-667, looked up, fragment)
# chain: PQTYRSFHDLRQAFRKFTKSERSKDLIKEAILDNDFMKNLELSQIQEIVDCMYPVEYGKDSCIIKEGDVGSLVYVMEDGKVEVTKEGVKLCTMGPGKVFGELAILYNCTRTATVKTLVNVKLWAIDRQCFQTIMMRTGLIKHTEYMEFLKSVPTFQSLPEEILSKLADVLEETHYENGEYIIRQGARGDTFFIISKGTVNVTREDSPSEDPVFLRTLGKGDWFGEKALQGEDVRTANVIAAEAVTCLVIDRDSFKHLIGGLDDVSNKAYEDAEAKAKYEAEAAFFANLKLSDFNIIDTLGVGGFGRVELVQLKSEESKTFAMKILKKRHIVDTRQQEHIRSEKQIMQGAHSDFIVRLYRTFKDSKYLYMLMEACLGGELWTILRDRGSFEDSTTRFYTACVVEAFAYLHSKGIIYRDLKPENLILDHRGYAKLVDFGFAKKIGFGKKTWTFCGTPEYVAPEIILNKGHDISADYWSLGILMYELLTGSPPFSGPDPMKTYNIILRGIDMIEFPKKIAKNAANLIKKLCRDNPSERLGNLKNGVKDIQKHKWFEGFNWEGLRKGTLTPPIIPSVASPTDTSNFDSFPEDNDEPPPDDNSGW
# modifications: isoform alpha
# Legend:
# [1] = target: T1, AL9 (carboxy-terminal 181 amino acids of MBS); assay: Yeast two-hybrid interaction assay (HIS3 and LacZ reporter activation); format: binding; conditions: yeast strain Y190
# Experimental: Colonies were lifted onto NitroPure nitrocellulose filters (MSI, Westboro, Mass.) which were then submerged in liquid nitrogen for 15 seconds, placed on presoaked Whatman #5 paper (in Z buffer: 60 mM Na2HPO4.7H2O, 40 mM NaH2PO4.H2O, 10 mM KCl, 1 mM MgSO4.7H2O), 50 mM β-mercaptoethanol, pH 7.0, and incubated at 37° for up to 12 hours.
# Polypeptides interacting with cGK-PC97 were detected by their ability to activate transcription of histidine (HIS3) and β-galactosidase (LacZ) reporter genes via reconstitution of the Gal4 transcription factor. MaV103 colonies capable of growing on media lacking histidine were assayed for β-galactosidase activity using the colony-lift filter assay, according to standard techniques and as described herein. PC86 plasmids (containing the activated T cell library) from His3+, LacZ+ colonies were isolated and the library cDNA insert sequenced. 2.5×10^6 clones were screened from the T cell library.
# To verify the interaction of AL9 with cGK1α, individual plasmids were introduced into S. cerevisiae strain Y190 (Clontech, Palo Alto, Calif.) by the lithium acetate method and assayed for reporter gene activation, as above. Y190 was transformed with cGK1α/GalDB or GalDB alone, in combination with AL9/GalAD or GalAD alone, and plated on Sc-His (synthetic complete medium, minus histidine) and YPD (yeast extract, peptone, dextrose) plates. β-galactosidase activity assays, on colonies from the YPD plate, were also performed. […] Thus, cotransformation of AL9 and cGK1α into S. cerevisiae confirmed the interaction of full-length cGK1α with the carboxy-terminal 181 amino acids of MBS.
# Yeast strain Y190 was transformed with AL9/GalAD in combination with the cGK1α/GalDB truncation mutants and plated on YPD and Sc-His plates. Colony lift β-Galactosidase assays for the yeast colonies growing on the YPD plate were also performed. […] Thus, the C-terminus of MBS (AL9) interacts with the N-terminus of cGK1α (cGK1α1-59).
# Site-directed mutagenesis was employed to replace selected leucine or isoleucine residues in the N-terminus of cGKIα. cGK1α1-59 was cloned into vector pcDNA3.1 (Invitrogen, Carlsbad, Calif.) using the method of Kunkel et al. (Kunkel et al., Methods in Enzymology, 154: 367-382, 1987). Three mutants of the leucine/isoleucine zipper of cGKIα were prepared: Leu12 and Ile19 to Ala (cGKLLZ1,2A); Leu26 to Pro (cGKLZ3P); Ile33 and Leu40 to Ala (cGKLZ4,5A). All mutants were confirmed by DNA sequencing, then subcloned into vector PC97 for expression in yeast. cGKLz1,2A, GKLZ3P, and GKLZ4,5A were each cotransformed with AL9 in yeast strain Y190 , and reporter gene activation assayed as described herein.
# PP1M = assay: Phosphatase assay in anti-MBS immunopellets; format: biochemical, human
# [2] = system: myosin light chain phosphorylation in rat aortic smooth muscle cells; assay: Agonist-stimulated myosin light chain phosphorylation in intact vascular smooth muscle cells; format: cell-based; conditions: n=3
# Text: The extent of agonist-stimulated myosin light chain phosphorylation was quantified in intact vascular smooth muscle cells transfected with either vector alone or a plasmid expressing the cGK1α leucine/isoleucine zipper domain (CGK1-59), to examine the effects of disrupting the cGK1α-MBS interaction on cGMP-mediated inhibition of myosin light chain phosphorylation. cGK1α1-59 was cloned into the mammalian expression vector pCI (Promega, Madison, Wis.). Rat aortic smooth muscle cells of passage 6 through 10 were transfected with either vector alone (pCI) or cDNA for the leucine/isoleucine zipper peptide from cGK (cGK1α1-59pCI) by electroporation. Cells were arrested in DME supplemented with insulin, ascorbic acid and transferrin, then stimulated with 2 μM of the thromboxane analogue U46619 for 1 minute in the absence or presence of 20 minute pretreatment with 1 mM 8-Br-cGMP. Following treatment, cells were precipitated with trichloroacetic acid, washed with acetone, and protein was subjected to glycerol-urea electrophoresis (Taylor et al., J. Biol Chem. 263, 14456, 1988). Myosin light chain phosphorylation state was quantified by immunoblotting the unphosphorylated and phosphorylated forms of myosin light chain with monoclonal antimyosin light chain antibody (Sigma, clone MY-21). Protein bands were analyzed by densitometry. Statistical analysis was performed using Student-Newman-Keuls method. Data represent the means+/−standard error of three separate experiments in duplicate.
# [3] = target: T2, PP1M phosphatase activity (Homo sapiens, UniProt P62140); assay: Phosphatase assay in cGKIα immunopellets; format: biochemical
# T2 construct: cGKIα was immunoprecipitated and phosphatase activity was assayed in the immunopellets as described herein; endogenous in cells; host or cells: human saphenous vein smooth muscle cells
# T2 sequence (P62140 whole entry): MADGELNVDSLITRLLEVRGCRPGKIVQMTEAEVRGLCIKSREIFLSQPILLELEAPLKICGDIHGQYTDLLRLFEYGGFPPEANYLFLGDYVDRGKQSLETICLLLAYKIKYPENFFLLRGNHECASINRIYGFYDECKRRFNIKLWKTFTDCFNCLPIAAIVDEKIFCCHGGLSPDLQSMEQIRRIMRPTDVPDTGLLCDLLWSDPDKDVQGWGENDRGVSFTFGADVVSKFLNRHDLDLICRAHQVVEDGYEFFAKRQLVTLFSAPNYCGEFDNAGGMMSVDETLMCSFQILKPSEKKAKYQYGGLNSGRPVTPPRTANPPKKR
# T2 sequence (O14974 whole entry partner): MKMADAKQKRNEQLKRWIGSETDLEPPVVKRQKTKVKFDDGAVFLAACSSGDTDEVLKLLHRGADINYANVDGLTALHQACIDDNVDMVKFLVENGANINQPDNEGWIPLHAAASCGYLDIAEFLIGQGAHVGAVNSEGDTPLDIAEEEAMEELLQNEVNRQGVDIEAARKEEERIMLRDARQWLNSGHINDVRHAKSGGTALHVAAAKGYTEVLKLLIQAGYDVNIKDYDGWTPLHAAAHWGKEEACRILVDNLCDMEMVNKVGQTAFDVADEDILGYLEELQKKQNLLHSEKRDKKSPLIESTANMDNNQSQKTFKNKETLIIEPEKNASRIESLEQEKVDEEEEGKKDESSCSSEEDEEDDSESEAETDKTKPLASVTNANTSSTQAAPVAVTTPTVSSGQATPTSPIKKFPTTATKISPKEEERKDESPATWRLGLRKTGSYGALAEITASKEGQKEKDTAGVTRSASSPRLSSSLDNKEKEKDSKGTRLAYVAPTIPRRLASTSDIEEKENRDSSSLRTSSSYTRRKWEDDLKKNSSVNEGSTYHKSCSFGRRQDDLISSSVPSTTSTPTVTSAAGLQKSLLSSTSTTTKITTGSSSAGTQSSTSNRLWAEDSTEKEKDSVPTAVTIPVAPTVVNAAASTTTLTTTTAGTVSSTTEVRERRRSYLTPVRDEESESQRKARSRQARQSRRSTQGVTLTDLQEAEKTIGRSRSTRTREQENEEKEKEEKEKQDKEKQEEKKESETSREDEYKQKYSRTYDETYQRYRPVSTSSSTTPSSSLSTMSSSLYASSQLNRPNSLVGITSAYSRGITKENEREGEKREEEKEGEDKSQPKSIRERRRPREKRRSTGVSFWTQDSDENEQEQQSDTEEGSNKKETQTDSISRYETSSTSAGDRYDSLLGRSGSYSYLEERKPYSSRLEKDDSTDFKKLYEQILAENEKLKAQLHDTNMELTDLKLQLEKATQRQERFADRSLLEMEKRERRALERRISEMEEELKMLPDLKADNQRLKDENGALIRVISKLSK
# T2 sequence (Q13976 whole entry partner): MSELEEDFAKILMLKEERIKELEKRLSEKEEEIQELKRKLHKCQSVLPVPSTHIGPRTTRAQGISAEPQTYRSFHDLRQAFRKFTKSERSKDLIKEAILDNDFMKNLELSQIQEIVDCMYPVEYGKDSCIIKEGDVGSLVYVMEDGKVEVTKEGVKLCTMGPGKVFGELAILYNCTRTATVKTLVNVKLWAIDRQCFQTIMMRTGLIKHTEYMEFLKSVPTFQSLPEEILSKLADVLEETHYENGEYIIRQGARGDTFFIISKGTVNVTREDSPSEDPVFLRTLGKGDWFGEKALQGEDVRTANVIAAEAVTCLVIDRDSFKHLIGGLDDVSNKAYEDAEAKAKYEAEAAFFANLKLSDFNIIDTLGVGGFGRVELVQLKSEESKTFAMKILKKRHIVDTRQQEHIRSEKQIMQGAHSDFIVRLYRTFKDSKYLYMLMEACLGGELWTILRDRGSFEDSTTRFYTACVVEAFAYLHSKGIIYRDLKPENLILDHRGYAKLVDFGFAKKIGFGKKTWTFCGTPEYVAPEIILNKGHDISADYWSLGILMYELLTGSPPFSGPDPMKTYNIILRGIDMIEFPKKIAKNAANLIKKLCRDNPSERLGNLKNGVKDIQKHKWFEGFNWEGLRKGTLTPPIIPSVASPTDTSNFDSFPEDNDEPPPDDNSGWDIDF
# Experimental: Immunopellets, prepared as described herein, were washed and resuspended in phosphatase assay buffer A (20 mM MOPS, 20 mM glucose, 1 mM dithiothreitol, 1 mM theophylline, 1 mg/ml BSA, and 5 mM azide, pH 7.5). ^32P-labeled phosphorylase a (final concentration 10 μM; Dr. D. Brautigan, University of Virginia, Va.) in either buffer A alone, buffer A with 10 mM 8-bromo-cGMP, buffer A with 2 nM okadaic acid, or buffer A with 1 μM okadaic acid was added to the immunopellets. The reactions were incubated at 30° C. for 30 minutes and terminated with trichloroacetic acid. In separate experiments, ^32P-myosin light chains were used as substrate in place of phosphorylase a.
# PP1M phosphatase activity in the cGKIα immunoprecipitates was measured against two known PP1M substrates, myosin light chain and phosphorylase a. cGKIα was immunoprecipitated and phosphatase activity was assayed in the immunopellets as described herein.
molecule,measurement,setting,value
"cGKLZ1,2A: cGK1α1-59 mutant, Leu12 and Ile19 to Ala (MSELEEDFAKIAMLKEERAKELEKRLSEKEEEIQELKRKLHKCQSVLPVPSTHIGPRTT; isoform alpha; UniProt Q13976 1-59, looked up, variant L12A I19A)",interaction with AL9/MBS in yeast two-hybrid (HIS and β-Gal reporter activation),[1],failed to interact with MBS
Nc1nc2c(nc(Br)n2[C@@H]2O[C@@H]3COP(=O)(O)O[C@H]3[C@H]2O)c(=O)[nH]1 [8-bromo-cGMP],increase of PP1 phosphatase activity in the MBS immunopellet,"PP1M; 8-bromo-cGMP added to anti-MBS immunopellets, n=5",32+/−13%
same,inhibition of U46619-stimulated myosin light chain phosphorylation,"[2]; cells expressing cGK1-59, 20 minute pretreatment with 1 mM 8-Br-cGMP",35%
same,inhibition of U46619-mediated myosin light chain phosphorylation,"[2]; control-transfected cells, 20 minute pretreatment with 1 mM 8-Br-cGMP",79+/−17%
CCCCC[C@H](O)/C=C/[C@@H]1[C@@H](C/C=C\CCCC(=O)O)[C@H]2CO[C@@H]1C2 [U46619],myosin light chain phosphorylation,"[2]; 2 μM U46619 for 1 minute, baseline 10+/−2%, vector control and cGK1-59-transfected cells",68+/−2%
"cGKLZ3P: cGK1α1-59 mutant, Leu26 to Pro (MSELEEDFAKILMLKEERIKELEKRPSEKEEEIQELKRKLHKCQSVLPVPSTHIGPRTT; isoform alpha; UniProt Q13976 1-59, looked up, variant L26P)",interaction with AL9/MBS in yeast two-hybrid (HIS and β-Gal reporter activation),[1],failed to interact with MBS
"cGK1α1-59: cGK1α truncation mutant containing amino acids 1-59, leucine/isoleucine zipper domain (MSELEEDFAKILMLKEERIKELEKRLSEKEEEIQELKRKLHKCQSVLPVPSTHIGPRTT; isoform alpha; UniProt Q13976 1-59, looked up, fragment)",interaction with AL9/MBS in yeast two-hybrid (HIS and β-Gal reporter activation),[1],interacted with AL9
C=C1[C@@H](O)[C@@H]2O[C@]3(CC[C@H](/C=C/[C@@H](C)[C@@H]4CC(C)=C[C@@]5(O[C@H](C[C@@](C)(O)C(=O)O)CC[C@H]5O)O4)O3)CC[C@H]2O[C@@H]1[C@@H](O)C[C@H](C)[C@H]1O[C@@]2(CCCCO2)CC[C@H]1C [okadaic acid],inhibition at 0.002 µM,"[3]; 2 nM okadaic acid, n=3, P=NS",12%
same,inhibition at 1 µM,"[3]; 1 μM okadaic acid, n=3, p<0.001 vs. untreated",79%
"cGKLZ4,5A: cGK1α1-59 mutant, Ile33 and Leu40 to Ala (MSELEEDFAKILMLKEERIKELEKRLSEKEEEAQELKRKAHKCQSVLPVPSTHIGPRTT; isoform alpha residues 1-59; UniProt Q13976 1-59, looked up, variant I33A L40A)",interaction with AL9/MBS in yeast two-hybrid (HIS and β-Gal reporter activation),[1],weak association with MBS
Nc1nc2c(nc(Sc3ccc(Cl)cc3)n2[C@@H]2O[C@@H]3CO[P@@](=O)(S)O[C@H]3[C@H]2O)c(=O)[nH]1 [Rp-8-pCPT-cGMPS],effect on activation of PP1M by 8-bromo-cGMP,"PP1M; preincubation of the complex with the inhibitor, two separate experiments",prevented
B1,interaction with AL9/MBS in yeast two-hybrid (HIS and β-Gal reporter activation),[1],failed to associate with AL9
B2,interaction with AL9/MBS in yeast two-hybrid (HIS and β-Gal reporter activation),[1],failed to associate with AL9

# From patent US20010041346A1, “METHOD FOR ASSAYING COMPOUNDS AFFECTING SMOOTH MUSCLE CONTRACTILE STATE” (priority 1999, published 2001)
